Test results: patent US7884103B2 (priority 2003, dated 2011)

What was measured:
[1] = test system: Septoria nodorum (Glume blotch); experiment: Septoria nodorum wheat leaf segment test, preventive fungicidal activity; format: cell-based; settings: tested dose range 200 to 22 ppm, wheat leaf segments, assessed 4 dpi
Procedure: Septoria nodorum (Glume blotch): Wheat leaf segments are placed on agar in a multiwell plate (24-well format) and sprayed with test solutions. After drying, the leaf disks are inoculated with a spore suspension of the fungus. After appropriate incubation the activity of a compound is assessed 4 dpi (days after inoculation) as preventive fungicidal activity. Within the tested dose range of 200 to 22 ppm the Compound No. 82 inhibited at least 80% of fungal growth.

[2] = test system: Plasmopara viticola on vines; experiment: Action against Plasmopara viticola on vines, residual-protective action (D-1a); format: in vivo; settings: vine seedlings sprayed 24 hours before infection, evaluated after 6 days, untreated plants attack 60-100%
Procedure: (§1) Action Against Plasmopara Viticola on Vines
A) Residual-Protective Action
Fungus infestation is evaluated after incubation for 6 days at 95-100% relative humidity and +20° C.

[3] = test system: Plasmopara viticola on vines; experiment: Action against Plasmopara viticola on vines, residual-curative action (D-1b); format: in vivo; settings: vine seedlings sprayed 24 hours after infection, evaluated 6 days after infection, untreated plants attack 60-100%
Procedure: as §1
b) Residual-Curative Action
Vine seedlings are infected at the 4- to 5-leaf stage with a sporangia suspension of the fungus. […] After the spray coating has dried, the treated plants are placed in the humidity chamber again. Fungus infestation is evaluated 6 days after infection.

Structure (SMILES) | inhibition of fungal growth [1] | inhibition at 200 ppm [2] [%] | inhibition at 200 ppm [3] [%]
CCOc1ccc(OCC(C)(NS(=O)(=O)Cc2ccccc2)C(=O)OC)cc1 (stereo not shown) [compound 082, 3-(4-Ethoxy-phenoxy)-2-methyl-2-phenylmethanesulfonylamino-propionic Acid Methyl Ester] | at least 80% | – | –
CCOc1ccc(OCC(C)(NS(=O)(=O)Cc2ccccc2)C(=O)N(C)OC)cc1 (stereo not shown) [compound 083, 3-(4-Ethoxy-phenoxy)-N-methoxy-2,N-dimethyl-2-phenylmethanesulfonylamino-propionamide] | – | 80 to 100 | 80 to 100
C#CCNC(=O)C(C)(COc1ccc(OCC)cc1)NS(=O)(=O)Cc1ccccc1 (stereo not shown) [compound 087, 3-(4-Ethoxy-phenoxy)-2-methyl-2-phenylmethanesulfonylamino-N-prop-2-ynyl-propionamide] | – | 80 to 100 | 80 to 100
CC(COc1ccc(-n2cncn2)cc1)(NS(=O)(=O)Cc1ccccc1)C(=O)O (stereo not shown) [compound 100, 2-Methyl-2-phenylmethanesulfonylamino-3-(4-[1,2,4]triazol-1-yl-phenoxy)-propionic Acid] | – | 80 to 100 | 80 to 100
